Results from patent US6337348B1, “Oxy-vanadium (iv) complexes having spermicidal activity” (Parker Hughes Institute, priority 1998, dated 2002).

Tests used:
[1] = tested on: human sperm; assay: Flow cytometric quantitation of sperm acrosome reaction (anti-CD46 mAb binding); assay type: cell-based; settings: tested at 100 μM, 3 hours, 37° C., mean of two experiments
Procedure: In experiments designed to assess the comparative effects of oxovanadium (IV) complexes and N-9 on sperm acrosome reaction, motile fractions of sperm (10^7/ml) prepared from a single donor were incubated in 1 ml of BWW−0.3% BSA in the presence of 100 μM each of the vanadocene complexes, VO(phen), VO(phen)2, VO(Me2—phen), VO(Me2—phen)2, VO(Cl—phen), VO(Cl—phen)2, VO(bipy), VO(bipy)2, VO(Me2—bipy), VO(Me2—bipy)2, and VO(Br,OH—acph)2 in 0.1% DMSO, N-9, or DMSO (0.1%) alone at 37° C. After 3 hours, 5 μg/ml of purified, phycoerythrin (PE)-conjugated murine anti-CD46 monoclonal antibody (mAb; clone 122-2; Research Diagnostics, Flanders, N.J.) was added and the sperm suspensions incubated for an additional 30 minutes. The suspensions was washed in Tyrode's salt solution (Sigma) containing 1% BSA (1% TBSA) and the percentage of CD46-positive sperm were analyzed by flow cytometry using a FACS Vantage flow cytometer (Becton Dickinson, Mountain View, Calif.), as described previously (DeCruz et al., 1996, Biol Reprod. 54:1217-1228; DeCruz et al., 1992, Fertil. Seril., 58:633-636). Two separate experiments were performed to quantitate acrosomal loss following exposure of sperm to oxovanadium (IV) complexes.

[2] = tested on: human sperm; assay: Sperm immobilization assay (SIA), motility by CASA; assay type: cell-based; settings: read-out: EC50 (concentration that decreases the proportion of motile sperm by 50%); 3 hours incubation at 37° C., BWW-0.3% BSA, serial 2-fold dilutions 250 μM to 1.9 μM, mean of two experiments
Procedure: To evaluate the spermicidal effects of complexes of oxovanadium (IV), VO(phen), VO(phen)2, VO(Me2—phen), VO(Me2—phen)2, VO(Cl—phen), VO(Cl—phen)2], VO(bipy), VO(bipy)2, VO(Me2—bipy), VO(Me2—bipy)2, and VO(Br,OH—acph)2, a highly motile fraction of pooled donor sperm (N=5) was prepared by discontinuous (90−45%). Percoll gradient (Conception Technologies, San Diego, Calif.) centrifugation and the “swim-up” method as described previously (Aitken et al., 1989, Biol. Reprod. 40:183-197). All donor specimens were obtained after informed consent and in compliance with the guidelines of the Hughes Institutional Review Board. Motile sperm (≳10×10^6/ml) were suspended in 1 ml of Biggers, Whitten, and Whittingham's medium (BWW) containing 0.3% BSA (fraction V; Sigma Chemical Co., St. Louis, Mo.) in the presence and absence of serial 2-fold dilutions of test substance (250 μM−1.9 μM) in 0.25% dimethyl sulfoxide (DMSO). For each experiment, fresh stock solutions (100 mM) of vanadium compounds were prepared in DMSO. A corresponding volume of DMSO (0.25%) was added to control sperm suspension. After 3 hours of incubation at 37° C., the percentage of motile sperm was evaluated by computer-assisted sperm motion analysis (CASA) as described previously (Aitken et al., 1989, Supra). The percentages of motilities were compared with those of sham-treated control suspensions of motile sperm.
For CASA, 4 μl each of sperm suspension was loaded into two 20 μm Microcell chambers placed onto a counting chamber at 37° C. At least 5-8 fields per chamber were scanned for analysis using a Hamilton Thorne Integrated Visual Optical System (IVOS) version 10 instrument (Hamilton Thorne Research Inc., Danvers, Mass.). Each field was recorded for 30 seconds. The Hamilton Thorne computer calibrations were set at 30 frames at a frame rate of 30 images/seconds. Other settings were as follows: minimum contrast 8; minimum size 6; low-size gate, 1.0; high-size gate,2.9; low-intensity gate, 0.6; high-intensity gate, 1.4; phase-contrast illumination; low path velocity at 10 μm/seconds and threshold straightness at 80%; magnification factor, 1.95. The performance of the analyzer was periodically checked using the playback function.
Results for the various numerical sperm functional parameters are presented as mean±standard deviation (SD) values. Comparison between oxovanadium (IV) complex-treated and control sperm relative to sperm motility parameters and apoptosis were performed using paired, two-tailed Student's T-test. A p value of <0.05 was considered significant.

With nonoxynol-9 [N-9, reference compound] the “Anti-CD46 positive sperm (%)” value [1] was 86% and the EC50 [2] was 78.5 µM.
